Test results: PubChem BioAssay (NCI)
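A five-concentration, 48-hour dose response in 96-well plates underlies each endpoint, interpolated linearly between surrounding concentrations. At the GI50, growth is halved. TGI: total growth inhibition.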

Experiments:
Assay in all cases: growth of human tumour cells (NCI), 48 h
[1] = test system: NCI/ADR-RES ovarian
[2] = test system: A498 renal
[3] = test system: K-562 leukemia
[4] = test system: SK-MEL-2 melanoma
[5] = test system: UACC-62 melanoma
[6] = test system: OVCAR-4 ovarian
[7] = test system: MCF7 breast
[8] = test system: SK-OV-3 ovarian
[9] = test system: UACC-257 melanoma
[10] = test system: M14 melanoma

| Compound | TGI [1] [µM] | TGI [2] [µM] | TGI [3] [µM] | TGI [4] [µM] | TGI [5] [µM] | TGI [6] [µM] | TGI [7] [µM] | TGI [8] [µM] | TGI [9] [µM] | TGI [10] [µM] | GI50 [1] [µM] | GI50 [10] [µM] | GI50 [2] [µM] | GI50 [3] [µM] | GI50 [9] [µM] | GI50 [4] [µM] | GI50 [5] [µM] | GI50 [6] [µM] | GI50 [7] [µM] | GI50 [8] [µM] |
| --- | --- | --- | --- | --- | --- | --- | --- | --- | --- | --- | --- | --- | --- | --- | --- | --- | --- | --- | --- | --- |
| COc1cc(C2c3cc4c(cc3[C@@H](Nc3ccc(N5CCOCC5)cc3)C3COC(=O)[C@H]23)OCO4)cc(OC)c1O (some centres undefined) | 26.2 | 3.2 | 5.01 | 5.4 | 3.91 | 25.9 | 14.7 | 5.38 | – | – | – | – | – | – | – | – | – | – | – | – |
| N/C(=N\N=C/c1cc(Cl)cc(Cl)c1O)NO | 26.6 | 18.8 | > 46.3 | 23.1 | 6.73 | 20.9 | 10.3 | 24.2 | 29.3 | – | – | – | – | – | – | – | – | – | – | – |
| Cn1nc2ccc3nccc(NCCNCCCl)c3c2n1 | – | – | > 100 | > 100 | > 100 | > 100 | – | > 100 | – | > 100 | – | – | – | – | – | – | – | – | – | – |
| CCOC(=O)C1CCn2c(nc3c(=O)n(C)c(=O)n(C)c32)S1 (centres undefined) | – | – | > 100 | > 100 | > 100 | > 100 | – | > 100 | > 100 | > 100 | – | – | – | – | – | – | – | – | – | – |
| CC1=NN(C(=O)c2ccccc2)C(=O)C1N=Nc1ccccc1C(=O)O (centres undefined) | > 100 | > 100 | > 29.4 | > 100 | 22.9 | > 55 | 19 | > 100 | – | – | – | – | – | – | – | – | – | – | – | – |
| CCNC(=O)CCCCC(=O)c1c(C)[nH]c(/C=C2\N=C(c3ccc[nH]3)C=C2OC)c1C | 10.8 | 21 | > 100 | 7.44 | 19.3 | 4.36 | 4.51 | 5.76 | 26.1 | 7.13 | 2.94 | 2.68 | 8.19 | 3.23 | 6.41 | 3.14 | 6.11 | 1.76 | 1.84 | 2.59 |
| O=C(/C=C\c1ccc(OCCCCCC[P+](c2ccccc2)(c2ccccc2)c2ccccc2)cc1)c1ccc2c(c1)OCCO2 | > 100 | 1.95 | > 100 | 3.9 | – | 3.42 | – | 3.88 | – | – | 4.31 | – | 0.376 | 0.494 | – | 1.41 | – | 0.415 | – | 1.58 |
| O=C(O)C1C2CCC(C2)C1c1ccccc1 (centres undefined) | > 100 | > 100 | > 100 | > 100 | > 100 | – | > 100 | > 100 | > 100 | > 100 | – | – | – | – | – | – | – | – | – | – |
| CN(C)S(=O)(=O)c1cccc(-c2nc3sc4c(c3c(=O)[nH]2)CCCC4)c1 | > 100 | – | > 100 | – | > 100 | – | > 100 | – | > 100 | > 100 | 2.83 | > 100 | – | > 100 | > 100 | – | > 100 | – | > 100 | – |
| COC(=O)C[C@](O)(CCC(C)(C)O)C(=O)O[C@@H]1C(OC)=C[C@]23CCCN2CCc2cc4c(cc2[C@H]13)OCO4 | 59.8 | 0.26 | > 100 | 0.407 | 1.12 | 0.478 | 0.113 | 0.915 | 0.537 | – | – | – | – | – | – | – | – | – | – | – |
| Cc1cc(C)c(N)c(C)c1N | – | > 100 | > 100 | > 100 | > 100 | – | – | > 100 | > 100 | > 100 | – | – | – | – | – | – | – | – | – | – |
| CCOC(=O)CCc1c(C)c2c(O)cc(O)cc2oc1=O | > 100 | > 100 | > 100 | > 100 | > 100 | > 100 | > 100 | > 100 | > 100 | – | – | – | – | – | – | – | – | – | – | – |
| O=C(/C=C/c1ccsc1)c1ccc(Cl)s1 | > 100 | > 100 | – | > 100 | > 100 | > 100 | > 100 | > 100 | > 100 | > 100 | – | – | – | – | – | – | – | – | – | – |
| CC(C(O)c1ccccc1)[N+](=O)[O-] (centres undefined) | 93.1 | 36.3 | 59.1 | 39 | 37.2 | 52.6 | 40.1 | – | 31.7 | 72 | – | – | – | – | – | – | – | – | – | – |
